Test results reported in patent publication US9670227B2, “Thienopyrimidine derivatives, a process for their preparation and pharmaceutical compositions containing them” (LES LABORATOIRES SERVIER, priority 2013, dated 2017).
Read-outs that look alike come from different tables or passages of the source.

Assays:
[1] = biological target: Mcl-1 protein (UniProtKB primary accession number: Q07820) (Homo sapiens, UniProt Q07820); test: Inhibition of Mcl-1 by fluorescence polarisation, Method 1; format: binding; details: for IC50: fluorescence polarisation, Method 1, or Method 2, read-out: IC50 (M) Mcl-1 FP
Method in brief: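 FP readout of relative binding potency. Mcl-1 5 nM final, fluorescein-labelled ligand 1 nM final; buffer 10 mM HEPES, 150 mM NaCl, 0.05% Tween 20, pH 7.4; 11-pt dilution series, 5% DMSO final.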

[2] = test system: H929 multiple myeloma tumour line; test: In vitro cytotoxicity, Microculture Tetrazolium Assay; format: cell-based; details: H929 cells, 48 hours exposure, MTT, read-out: IC50 (μM) MTT H929
Experimental: The cytotoxicity studies were carried out on the H929 multiple myeloma tumour line.
The cells are distributed onto microplates and exposed to the test compounds for 48 hours.

Sequence of Mcl-1 protein (Q07820 whole entry): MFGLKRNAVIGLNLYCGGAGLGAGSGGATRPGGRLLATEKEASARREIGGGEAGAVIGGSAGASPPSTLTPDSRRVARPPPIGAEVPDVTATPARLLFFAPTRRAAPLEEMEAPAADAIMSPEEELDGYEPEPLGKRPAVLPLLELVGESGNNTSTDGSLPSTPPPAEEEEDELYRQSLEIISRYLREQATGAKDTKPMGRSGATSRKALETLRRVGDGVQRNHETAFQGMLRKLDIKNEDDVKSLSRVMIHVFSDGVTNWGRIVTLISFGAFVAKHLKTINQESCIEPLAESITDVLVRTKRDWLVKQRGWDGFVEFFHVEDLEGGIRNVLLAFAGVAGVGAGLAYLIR

SMILES | IC50 [1] [M] | percentage fluorescence polarisation inhibition, Mcl-1 FP ([1]; partial inhibitors, @ 10 uM test compound) [% @ 10 uM] | IC50 ([2]; Homo sapiens, NCI-H929, 48 h) [µM] | IC50 [2] [µM]
CCCCn1nccc1COc1ccccc1CC(Oc1ncnc2sc(-c3ccc(OCC)cc3)c(-c3ccc(OCCN4CCN(C)CC4)c(Cl)c3C)c12)C(=O)O [Example 604, (2R)-3-{2-[(1-butyl-1H-pyrazol-5-yl)methoxy]phenyl}-2-{[(5Sa)-5-{3-chloro-2-methyl-4-[2-(4-methylpiperazin-1-yl)ethoxy]phenyl}-6-(4-ethoxyphenyl)thieno[2,3-d]pyrimidin-4-yl]oxy}propanoic acid] | 5.7e-09 | – | 0.064 | –
CCCCn1nccc1COc1ccccc1CC(Oc1ncnc2sc(-c3ccc(-c4ccc(Cl)nc4)nc3)c(-c3ccc(OCCN4CCN(C)CC4)c(Cl)c3C)c12)C(=O)O [Example 605, (2R)-3-{2-[(1-butyl-1H-pyrazol-5-yl)methoxy]phenyl}-2-{[6-(6′-chloro-2,3′-bipyridin-5-yl)-(5Sa)-5-{3-chloro-2-methyl-4-[2-(4-methylpiperazin-1-yl)ethoxy]phenyl}thieno[2,3-d]pyrimidin-4-yl]oxy}propanoic acid] | 8.2e-09 | – | 0.254 | –
CCCCn1nccc1COc1ccccc1CC(Oc1ncnc2sc(-c3ccc(Cl)nc3)c(-c3ccc(OCCN4CCN(C)CC4)c(Cl)c3C)c12)C(=O)O [Example 606, (2R)-3-{2-[(1-butyl-1H-pyrazol-5-yl)methoxy]phenyl}-2-{[(5Sa)-5-{3-chloro-2-methyl-4-[2-(4-methylpiperazin-1-yl)ethoxy]phenyl}-6-(6-chloropyridin-3-yl)thieno[2,3-d]pyrimidin-4-yl]oxy}propanoic acid] | 4e-09 | – | 0.064 | –
CCCCn1nccc1COc1ccccc1CC(Oc1ncnc2sc(-c3ccc(F)nc3)c(-c3ccc(OCCN4CCN(C)CC4)c(Cl)c3C)c12)C(=O)O [Example 607, (2R)-3-{2-[(1-butyl-1H-pyrazol-5-yl)methoxy]phenyl}-2-{[(5Sa)-5-{3-chloro-2-methyl-4-[2-(4-methylpiperazin-1-yl)ethoxy]phenyl}-6-(6-fluoropyridin-3-yl)thieno[2,3-d]pyrimidin-4-yl]oxy}propanoic acid] | 3.5e-09 | – | 0.04 | –
CCCCn1nccc1COc1ccccc1CC(Oc1ncnc2sc(-c3ccc(OC)nc3)c(-c3ccc(OCCN4CCN(C)CC4)c(Cl)c3C)c12)C(=O)O [Example 608, (2R)-3-{2-[(1-butyl-1H-pyrazol-5-yl)methoxy]phenyl}-2-{[(5Sa)-5-{3-chloro-2-methyl-4-[2-(4-methylpiperazin-1-yl)ethoxy]phenyl}-6-(6-methoxypyridin-3-yl)thieno[2,3-d]pyrimidin-4-yl]oxy}propanoic acid] | 4.2e-09 | – | 0.021 | –
CCCCn1nccc1COc1ccccc1CC(Oc1ncnc2sc(-c3cccnc3)c(-c3ccc(OCCN4CCN(C)CC4)c(Cl)c3C)c12)C(=O)O [Example 609, (2R)-3-{2-[(1-butyl-1H-pyrazol-5-yl)methoxy]phenyl}-2-{[(5Sa)-5-{3-chloro-2-methyl-4-[2-(4-methylpiperazin-1-yl)ethoxy]phenyl}-6-(pyridin-3-yl)thieno[2,3-d]pyrimidin-4-yl]oxy}propanoic acid] | 3.5e-09 | – | 0.063 | –
CCCCn1nccc1COc1ccccc1CC(Oc1ncnc2sc(-c3ccn(C)n3)c(-c3ccc(OCCN4CCN(C)CC4)c(Cl)c3C)c12)C(=O)O [Example 610, (2R)-3-{2-[(1-butyl-1H-pyrazol-5-yl)methoxy]phenyl}-2-{[(5Sa)-5-{3-chloro-2-methyl-4-[2-(4-methylpiperazin-1-yl)ethoxy]phenyl}-6-(1-methyl-1H-pyrazol-3-yl)thieno[2,3-d]pyrimidin-4-yl]oxy}propanoic acid] | 3.5e-09 | – | 0.091 | –
C#Cc1sc2ncnc(OC(Cc3ccccc3OCc3ccnn3CCCC)C(=O)O)c2c1-c1ccc(OCCN2CCN(C)CC2)c(Cl)c1C [Example 611, (2R)-3-{2-[(1-butyl-1H-pyrazol-5-yl)methoxy]phenyl}-2-[((5Sa)-5-{3-chloro-2-methyl-4-[2-(4-methylpiperazin-1-yl)ethoxy]phenyl}-6-ethynylthieno[2,3-d]pyrimidin-4-yl)oxy]propanoic acid] | 3.9e-09 | – | 0.23 | –
CCC#Cc1sc2ncnc(OC(Cc3ccccc3OCc3ccnn3CCCC)C(=O)O)c2c1-c1ccc(OCCN2CCN(C)CC2)c(Cl)c1C [Example 612, (2R)-3-{2-[(1-butyl-1H-pyrazol-5-yl)methoxy]phenyl}-2-{[6-(but-1-yn-1-yl)-(5Sa)-5-{3-chloro-2-methyl-4-[2-(4-methylpiperazin-1-yl)ethoxy]phenyl}thieno[2,3-d]pyrimidin-4-yl]oxy}propanoic acid] | 3.5e-09 | – | 0.02 | –
CCCCn1nccc1COc1ccccc1CC(Oc1ncnc2sc(C#CCOC)c(-c3ccc(OCCN4CCN(C)CC4)c(Cl)c3C)c12)C(=O)O [Example 613, (2R)-3-{2-[(1-butyl-1H-pyrazol-5-yl)methoxy]phenyl}-2-{[(5Sa)-5-{3-chloro-2-methyl-4-[2-(4-methylpiperazin-1-yl)ethoxy]phenyl}-6-(3-methoxyprop-1-yn-1-yl)thieno[2,3-d]pyrimidin-4-yl]oxy}propanoic acid] | 3.5e-09 | – | 0.158 | –
CCCCn1nccc1COc1ccccc1CC(Oc1ncnc2sc(C(F)(F)F)c(-c3ccc(OCCN4CCN(C)CC4)c(Cl)c3C)c12)C(=O)O [Example 615, (2R)-3-{2-[(1-butyl-1H-pyrazol-5-yl)methoxy]phenyl}-2-{[(5Sa)-5-{3-chloro-2-methyl-4-[2-(4-methylpiperazin-1-yl)ethoxy]phenyl}-6-(trifluoromethyl)thieno[2,3-d]pyrimidin-4-yl]oxy}propanoic acid] | 8e-10 | – | 0.292 | –
CCCCn1nccc1COc1ccccc1CC(Oc1ncnc2sc(-c3ccc(OCCN4CCOCC4)cc3)c(-c3ccc(OCCN4CCN(C)CC4)c(Cl)c3C)c12)C(=O)O [Example 616, (2R)-3-{2-[(1-butyl-1H-pyrazol-5-yl)methoxy]phenyl}-2-[((5Sa)-5-{3-chloro-2-methyl-4-[2-(4-methylpiperazin-1-yl)ethoxy]phenyl}-6-{4-[2-(morpholin-4-yl)ethoxy]phenyl}thieno[2,3-d]pyrimidin-4-yl)oxy]propanoic acid] | 4e-09 | – | 0.07 | –
CCCCn1nccc1COc1ccccc1CC(Oc1ncnc2sc(CCCOC)c(-c3ccc(OCCN4CCN(C)CC4)c(Cl)c3C)c12)C(=O)O [Example 617, (2R)-3-{2-[(1-butyl-1H-pyrazol-5-yl)methoxy]phenyl}-2-{[(5Sa)-5-{3-chloro-2-methyl-4-[2-(4-methylpiperazin-1-yl)ethoxy]phenyl}-6-(3-methoxypropyl)thieno[2,3-d]pyrimidin-4-yl]oxy}propanoic acid] | 5.4e-09 | – | 0.277 | –

Now from value to molecule, other results behind:

IC50 [1] [M] | percentage fluorescence polarisation inhibition, Mcl-1 FP ([1]; partial inhibitors, @ 10 uM test compound) [% @ 10 uM] | SMILES | IC50 ([2]; Homo sapiens, NCI-H929, 48 h) [µM] | IC50 [2] [µM]
7e-09 | – | CCCCn1nccc1COc1ccccc1CC(Oc1ncnc2sc(-c3ccc(N4CCOCC4)nc3)c(-c3ccc(OCCN4CCN(C)CC4)c(Cl)c3C)c12)C(=O)O [Example 619, (2R)-3-{2-[(1-butyl-1H-pyrazol-5-yl)methoxy]phenyl}-2-[((5Sa)-5-{3-chloro-2-methyl-4-[2-(4-methylpiperazin-1-yl)ethoxy]phenyl}-6-[6-(morpholin-4-yl)pyridin-3-yl]thieno[2,3-d]pyrimidin-4-yl)oxy]propanoic acid] | 0.336 | –
5.9e-09 | – | CCCCn1nccc1COc1ccccc1CC(Oc1ncnc2sc(-c3ccc(NCCOC)nc3)c(-c3ccc(OCCN4CCN(C)CC4)c(Cl)c3C)c12)C(=O)O [Example 620, (2R)-3-{2-[(1-butyl-1H-pyrazol-5-yl)methoxy]phenyl}-2-[((5Sa)-5-{3-chloro-2-methyl-4-[2-(4-methylpiperazin-1-yl)ethoxy]phenyl}-6-{6-[(2-methoxyethyl)amino]pyridin-3-yl}thieno[2,3-d]pyrimidin-4-yl)oxy]propanoic acid] | 0.532 | –
5.3e-09 | – | CCCCn1nccc1COc1ccccc1CC(Oc1ncnc2sc(-c3ccc(OCCN4CCOCC4)nc3)c(-c3ccc(OCCN4CCN(C)CC4)c(Cl)c3C)c12)C(=O)O [Example 621, (2R)-3-{2-[(1-butyl-1H-pyrazol-5-yl)methoxy]phenyl}-2-[((5Sa)-5-{3-chloro-2-methyl-4-[2-(4-methylpiperazin-1-yl)ethoxy]phenyl}-6-{6-[2-(morpholin-4-yl)ethoxy]pyridin-3-yl}thieno[2,3-d]pyrimidin-4-yl)oxy]propanoic acid] | 0.095 | –
1.1e-08 | – | CCCCn1nccc1COc1ccccc1CC(Oc1ncnc2sc(-c3ccc(OCCOC)nc3)c(-c3ccc(OCCN4CCN(C)CC4)c(Cl)c3C)c12)C(=O)O [Example 622, (2R)-3-{2-[(1-butyl-1H-pyrazol-5-yl)methoxy]phenyl}-2-[((5Sa)-5-{3-chloro-2-methyl-4-[2-(4-methylpiperazin-1-yl)ethoxy]phenyl}-6-[6-(2-methoxyethoxy)pyridin-3-yl]thieno[2,3-d]pyrimidin-4-yl)oxy]propanoic acid] | 0.109 | –
– | 74.85 | CCOC(=O)[C@@H](Cc1ccccc1OCc1ccnc(OC)n1)Oc1ncnc2sc(-c3ccc(F)o3)c(-c3ccc(OCCN4CCN(C)CC4)c(Cl)c3C)c12 [Example 625, ethyl (2R)-2-{[(5Sa)-5-{3-chloro-2-methyl-4-[2-(4-methylpiperazin-1-yl)ethoxy]phenyl}-6-(5-fluorofuran-2-yl)thieno[2,3-d]pyrimidin-4-yl]oxy}-3-{2-[(2-methoxypyrimidin-4-yl)methoxy]phenyl}propanoate] | – | 0.62
